For series [1], the system named is Peripheral blood mononuclear cells (PBMC). Put plainly: PBMC assay: induction of cytokines INFα and INFγ. It counts as cell-based. The note with it: Homo sapiens, PBMCs, 16 h incubation, mean from three different PBMC donors.
Series [2] in a line: Cytotoxic effect on PBMCs (CellTiter-Glo Luminescent Cell Viability Assay). It counts as cell-based. The note with it: human, 16 h incubation, mean from three different PBMC donors. As to the method: Briefly, buffy coats were obtained from the Institute of Hematology and Blood Transfusion (Prague, Czech Republic). Informed written consent was signed by each volunteer. Isolation of PBMCs was performed on Ficoll density gradient centrifugation (Ficoll Paque Plus, GE Healthcare, USA) in SepMate tubes (SepMate PBMC Isolation Tubes, Stemcell Technologies, Canada). Obtained PBMCs were washed using PBS with 2 mM EDTA, and then seeded onto 96-well U-shape plates at density 500,000 cells per well in RPMI 1640 media with 10% (v/v) heat inactivated FBS. Serially diluted CDNs were added to cells and cells were incubated for 16 h (37° C., 5% CO2). After incubation, medium was collected to determine levels of INFα and INFγ using ProcartaPlex Assays and MAGPIX System (Merck, Germany) according to the manufacturer's instructions. Cytotoxic effect of CDNs on PBMCs was determined using CellTiter-Glo® Luminescent Cell Viability Assay (Promega Corporation, USA) according to manufacturer's instruction.
A general note: ATP-based viability assays read luminescence as a measure of living cells.

For the next series, the target named is wt hSTING (Homo sapiens, UniProt Q86WV6). Put plainly: Standard 293T reporter cell-based assay (IRF-3 dependent firefly luciferase reporter). The note with it: read-out: Standard assay EC50; 293T reporter cells expressing wt hSTING; 7 h incubation; mean of three independent experiments in triplicates, SD <50%. A general note: In a reporter assay the amount or activity of a reporter protein is the signal.

The mark [3] stands for this setting: read-out: PBMC assay EC50 INF α.
Setting [4] is: read-out: PBMC assay EC50 INF γ.

Each structure is given as a SMILES string. pEC50: −log10 of the molar value. Where two headings read alike, the source gives them in different places.

Sequence of wt hSTING (Q86WV6 whole entry H232R): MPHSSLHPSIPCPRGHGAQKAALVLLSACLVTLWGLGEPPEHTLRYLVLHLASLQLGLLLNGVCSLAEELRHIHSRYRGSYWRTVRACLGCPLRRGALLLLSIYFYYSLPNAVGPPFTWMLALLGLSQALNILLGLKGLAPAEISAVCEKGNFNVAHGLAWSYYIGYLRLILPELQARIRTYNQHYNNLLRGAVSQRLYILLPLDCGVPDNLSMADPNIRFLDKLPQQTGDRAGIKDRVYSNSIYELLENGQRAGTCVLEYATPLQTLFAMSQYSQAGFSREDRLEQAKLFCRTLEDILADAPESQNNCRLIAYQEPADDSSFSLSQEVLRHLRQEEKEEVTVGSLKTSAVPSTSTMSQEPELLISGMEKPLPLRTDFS
Protocol for wt hSTING: Briefly, the day before testing cells were seeded onto 96-well white plates at density 250,000 cells per cm^2 in DMEM High glucose medium supplemented with 10% (v/v) heat inactivated fetal bovine albumin (FBS). The next day medium was removed, and cell were incubated for 7 h (37° C., 5% CO2) with serial dilution of compounds in medium. After incubation, Bright-Glo Luciferase Assay System reagent was added to cells and luminescence readout was performed on SPARK instrument (Tecan, Austria). EC50 values were determined using in software Prism (GraphPad, USA).

Broadly, the pEC50 is the negative decadic logarithm of the EC50, by convention in mol/L. The CC50 is the concentration giving 50% cytotoxicity. A high value points to lower toxicity to the cells. Take `Nc1nc2c(ncn2[C@@H]2O[C@@H]3COP(=O)(O)O[C@H]4[C@@H](O)[C@H](n5cc(-c6ccc(-c7ccccc7)cc6)c6c(N)ncnc65)O[C@@H]4COP(=O)(O)O[C@@H]2[C@@H]3O)c(=O)[nH]1` [Compound 1f, 9-((5R,7R,8R,12aR,14R,15R,15aS,16R)-14-(5-([1,1′-biphenyl]-4-yl)-4-amino-7H-pyrrolo[2,3-d]pyrimidin-7-yl)-2,10,15,16-tetrahydroxy-2,10-dioxidooctahydro-12H-5,8-methanofuro[3,2-l][1,3,6,9,11]pentaoxa[2,10]diphosphacyclotetradecin-7-yl)-2-amino-1,9-dihydro-6H-purin-6-one]: the pEC50 is 5.13 in series [1] (setting [3]), 5.70 in series [1] (setting [4]) and 5.53 on wt hSTING. The compound also returned a CC50 at 16 h in series [2] of over 200 µM.
`Nc1nc2c(ncn2[C@@H]2O[C@@H]3COP(=O)(O)O[C@H]4[C@@H](O)[C@H](n5cc(-c6ccc(-c7ccc8ccccc8c7)cc6)c6c(N)ncnc65)O[C@@H]4COP(=O)(O)O[C@@H]2[C@@H]3O)c(=O)[nH]1` [Compound 1g, 2-amino-9-((5R,7R,8R,12aR,14R,15R,15aS,16R)-14-(4-amino-5-(4-(naphthalen-2-yl)phenyl)-7H-pyrrolo[2,3-d]pyrimidin-7-yl)-2,10,15,16-tetrahydroxy-2,10-dioxidooctahydro-12H-5,8-methanofuro[3,2-l][1,3,6,9,11]pentaoxa[2,10]diphosphacyclotetradecin-7-yl)-1,9-dihydro-6H-purin-6-one]: the figures for the pEC50 (in series [1] (setting [3]); in series [1] (setting [4]); on wt hSTING) were 5.29, 5.74 and 5.51, respectively. The CC50 at 16 h in series [2] was over 200 µM.
For `Nc1nc2c(ncn2[C@@H]2O[C@@H]3COP(=O)(O)O[C@H]4[C@@H](O)[C@H](n5cc(-c6cc7ccccc7o6)c6c(N)ncnc65)O[C@@H]4COP(=O)(O)O[C@@H]2[C@@H]3O)c(=O)[nH]1` [Compound 1k, 2-amino-9-((5R,7R,8R,12aR,14R,15R,15aS,16R)-14-(4-amino-5-(benzo[b]furan-2-yl)-7H-pyrrolo[2,3-d]pyrimidin-7-yl)-2,10,15,16-tetrahydroxy-2,10-dioxidooctahydro-12H-5,8-methanofuro[3,2-l][1,3,6,9,11]pentaoxa[2,10]diphosphacyclotetradecin-7-yl)-1,9-dihydro-6H-purin-6-one], the pEC50 in series [1] (setting [3]) is 4.86; in series [1] (setting [4]), 5.07; at wt hSTING it was 4.96. Moreover, the CC50 at 16 h in series [2] is over 200 µM.
